Assay results taken from patent US8008505B2, “Indazole or 4,5,6,7-tetrahydro-indazole derivatives” (Hoffmann-La Roche Inc., priority 2008, dated 2011).

The molecules below were run against T1, FXR ligand binding domain (Homo sapiens, UniProt Q96RI1) (assay: Radioligand binding assay (radioligand displacement, scintillation proximity)). Conditions: GST-FXR LBD fusion protein on SPA beads, radioligand 2,N-dicyclohexyl-2-[2-(2,4 dimethoxy-phenyl)-benzoimidazol-1-yl]-acetamide, RT 30 minutes.
T1 sequence (Q96RI1 1-486): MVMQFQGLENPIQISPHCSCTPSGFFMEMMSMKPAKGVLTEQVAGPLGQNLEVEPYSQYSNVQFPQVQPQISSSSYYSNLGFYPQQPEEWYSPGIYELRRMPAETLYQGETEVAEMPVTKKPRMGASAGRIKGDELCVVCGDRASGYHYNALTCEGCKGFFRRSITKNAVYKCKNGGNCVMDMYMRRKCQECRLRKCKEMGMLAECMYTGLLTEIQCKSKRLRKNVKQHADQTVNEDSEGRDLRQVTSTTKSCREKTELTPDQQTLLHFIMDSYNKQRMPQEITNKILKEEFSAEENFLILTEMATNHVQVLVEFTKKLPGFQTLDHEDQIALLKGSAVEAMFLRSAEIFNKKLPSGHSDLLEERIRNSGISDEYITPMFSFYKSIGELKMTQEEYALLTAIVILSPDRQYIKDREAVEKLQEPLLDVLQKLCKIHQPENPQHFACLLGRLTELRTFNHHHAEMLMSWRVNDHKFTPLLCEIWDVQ
Procedure: The following tests were carried out in order to determine the activity of the compounds of formula I. Background information on the binding assay can be found in: Nichols J S et al. “Development of a scintillation proximity assay for peroxisome proliferator-activated receptor gamma ligand binding domain”, (1998) Anal. Biochem. 257: 112-119.
Bacterial and mammalian expression vectors were constructed to produce glutathione-s-transferase (GST) and Gal4 DNA binding domain (GAL) proteins fused to the ligand binding domain (LBD) of human FXR (aa 193-473). To accomplish this, the portions of the sequences encoding the FXR LBD were amplified by polymerase chain reaction (PCR) from a full-length clone by PCR and then subcloned into the plasmid vectors. The final clone was verified by DNA sequence analysis.
The induction, expression, and subsequent purification of GST-LBD fusion protein was performed in E. coli strain BL21(pLysS) cells by standard methods (Current Protocols in Molecular Biology, Wiley Press, ed. Ausubel et al).
Radioligand Binding Assay
Binding of test substances to the FXR ligand binding domain was assessed in a radioligand displacement assay. The assay was performed in a buffer consisting of 50 mM Hepes, pH 7.4, 10 mM NaCl, 5 mM MgCl2. For each reaction well in a 96-well plate, 40 nM of GST-FXR LBD fusion protein was bound to 10 μg glutathione ytrium silicate SPA beads (Pharmacia Amersham) in a final volume of 50 μl by shaking. A radioligand (eg. 40 nM) of 2,N-dicyclohexyl-2-[2-(2,4 dimethoxy-phenyl)-benzoimidazol-1-yl]-acetamide) was added, and the reaction incubated at RT for 30 minutes in the presence of test compounds followed by scintillation proximity counting. All binding assays were performed in 96-well plates and the amount of bound ligand was measured on a Packard TopCount using OptiPlates (Packard). Dose response curves were performed within a range of concentration from 6×10^−9 M to 2.5×10^−5 M.

SMILES	IC50
O=C(NC1CCCC1)C(c1c2c(nn1-c1ccc(Cl)cc1)CCCC2)C1CCCCC1 (centres unmarked) [Example 8, 2-[2-(4-Chloro-phenyl)-4,5,6,7-tetrahydro-2H-indazol-3-yl]-2-cyclohexyl-N-cyclopentyl-acetamide]	1060 nM
O=C(O)c1ccc(NC(=O)C(c2c3c(nn2-c2ccc(Cl)cc2)CCCC3)C2CCCCC2)c(C(F)(F)F)c1 (racemic) [Example 20, [rac]-4-{2-[2-(4-Chloro-phenyl)-4,5,6,7-tetrahydro-2H-indazol-3-yl]-2-cyclohexyl-acetylamino}-3-trifluoromethyl-benzoic acid]	330 nM
N#Cc1ccc(OC(c2c3cc(F)c(F)cc3nn2-c2ccc(Cl)cc2)C2CCCCC2)c(F)c1 (racemic) [Example 35, [rac]-4-{[2-(4-Chloro-phenyl)-5,6-difluoro-2H-indazol-3-yl]-cyclohexyl-methoxy}-3-fluoro-benzonitrile]	870 nM
O=C(NC1CCCCC1)C(c1c2ccccc2nn1-c1ccccc1)C1CCCCC1 (centres unmarked) [Example 1, 2,N-Dicyclohexyl-2-(2-phenyl-2H-indazol-3-yl)-acetamide]	1920 nM
Fc1cc(-c2nnn[nH]2)ccc1OCC(c1c2ccccc2nn1-c1ccc(Cl)cc1)C1CCCCC1 (racemic) [Example 31, [rac]-2-(4-Chloro-phenyl)-3-{1-cyclohexyl-2-[2-fluoro-4-(2H-tetrazol-5-yl)-phenoxy]-ethyl}-2H-indazole]	100 nM
Fc1cc2nn(-c3ccc(Cl)cc3)c(C(COc3ccc(-c4nnn[nH]4)cc3F)C3CCCCC3)c2cc1F (racemic) [Example 36, [rac]-2-(4-Chloro-phenyl)-3-{1-cyclohexyl-2-[2-fluoro-4-(2H-tetrazol-5-yl)-phenoxy]-ethyl}-5,6-difluoro-2H-indazole]	400 nM
Cc1cc(C(=O)O)cc(C)c1OCC(c1c2ccccc2nn1-c1ccc(Cl)cc1)C1CCCCC1 (racemic) [Example 29, [rac]-4-{2-[2-(4-Chloro-phenyl)-2H-indazol-3-yl]-2-cyclohexyl-ethoxy}-3,5-dimethyl-benzoic acid]	26 nM
O=C(O)c1ccc(NC(=O)C(c2c3cc(F)c(F)cc3nn2-c2ccc(Cl)cc2)C2CCCCC2)c(F)c1 (racemic) [Example 32, [rac]-4-{2-[2-(4-Chloro-phenyl)-5,6-difluoro-2H-indazol-3-yl]-2-cyclohexyl-acetylamino}-3-fluoro-benzoic acid]	1700 nM
O=C(O)c1ccc(COC(c2c3cc(F)c(F)cc3nn2-c2ccc(Cl)cc2)C2CCCCC2)cc1 (racemic) [Example 27, [rac]-4-{[2-(4-Chloro-phenyl)-5,6-difluoro-2H-indazol-3-yl]-cyclohexyl-methoxymethyl}-benzoic acid]	245 nM
Cc1cc(-c2nnn[nH]2)cc(C)c1OCC(c1c2ccccc2nn1-c1ccc(Cl)cc1)C1CCCCC1 (racemic) [Example 52, [rac]-2-(4-Chloro-phenyl)-3-{1-cyclohexyl-2-[2,6-dimethyl-4-(2H-tetrazol-5-yl)-phenoxy]-ethyl}-2H-indazole]	4 nM
O=C(O)c1ccc(NC(=O)C(c2c3c(nn2-c2ccc(Cl)cc2)CCCC3)C2CCCCC2)cc1 (centres unmarked) [Example 7, 4-{2-[2-(4-Chloro-phenyl)-4,5,6,7-tetrahydro-2H-indazol-3-yl]-2-cyclohexyl-acetylamino}-benzoic acid]	800 nM
O=C(O)c1ccc(SCC(c2c3c(nn2-c2ccc(Cl)cc2)CCCC3)C2CCCCC2)cc1 (racemic) [Example 63, [rac]-4-{2-[2-(4-Chloro-phenyl)-4,5,6,7-tetrahydro-2H-indazol-3-yl]-2-cyclohexyl-ethylsulfanyl}-benzoic acid]	200 nM
N#Cc1ccc(COC(c2c3c(nn2-c2ccc(Cl)cc2)CCCC3)C2CCCCC2)cc1 (racemic) [Example 44, [rac]-4-{[2-(4-Chloro-phenyl)-4,5,6,7-tetrahydro-2H-indazol-3-yl]-cyclohexyl-methoxymethyl}-benzonitrile]	5620 nM
O=C(O)c1ccc(NC(=O)C(c2c3ccccc3nn2-c2ccc(Cl)cc2)C2CCCCC2)cc1 (centres unmarked) [Example 12, 4-{2-[2-(4-Chloro-phenyl)-2H-indazol-3-yl]-2-cyclohexyl-acetylamino}-benzoic acid]	7300 nM
O=C(O)c1ccc(NC(=O)C(O)(c2c3c(nn2-c2ccc(Cl)cc2)CCCC3)C2CCCCC2)c(F)c1 (centres unmarked) [Example 5, 4-{2-[2-(4-Chloro-phenyl)-4,5,6,7-tetrahydro-2H-indazol-3-yl]-2-cyclohexyl-2-hydroxy-acetylamino}-3-fluoro-benzoic acid]	2050 nM

Next, values leading:

IC50	SMILES
155 nM	O=C(NC1CCCCC1)C(c1c2c(nn1-c1ccc(Cl)cc1)CCCC2)C1CCCCC1 (centres unmarked) [Example 6, 2-[2-(4-Chloro-phenyl)-4,5,6,7-tetrahydro-2H-indazol-3-yl]-2,N-dicyclohexyl-acetamide]
14 nM	Fc1cc2nn(-c3ccc(Cl)cc3)c(C(OCc3ccc(-c4nnn[nH]4)cc3F)C3CCCCC3)c2cc1F (racemic) [Example 42, [rac]-2-(4-Chloro-phenyl)-3-{cyclohexyl-[2-fluoro-4-(2H-tetrazol-5-yl)-benzyloxy]-methyl}-5,6-difluoro-2H-indazole]
42 nM	O=C(O)C1(Oc2ccc(OCC(c3c4c(nn3-c3ccc(Cl)cc3)CCCC4)C3CCCCC3)cc2)CC1 (racemic) [Example 55, [rac]-1-(4-{2-[2-(4-Chloro-phenyl)-4,5,6,7-tetrahydro-2H-indazol-3-yl]-2-cyclohexyl-ethoxy}-phenoxy)-cyclopropanecarboxylic acid]
680 nM	O=C(NC1CCCCC1)C(c1c2cc(F)c(F)cc2nn1-c1ccc(Cl)cc1)C1CCCCC1 (racemic) [Example 24, [rac]-2-[2-(4-Chloro-phenyl)-5,6-difluoro-2H-indazol-3-yl]-2,N-dicyclohexyl-acetamide]
570 nM	CC(C)(Oc1ccc(NC(=O)C(c2c3cc(F)c(F)cc3nn2-c2ccc(Cl)cc2)C2CCCCC2)c(F)c1)C(=O)O (racemic) [Example 26, [rac]-2-(4-{2-[2-(4-Chloro-phenyl)-5,6-difluoro-2H-indazol-3-yl]-2-cyclohexyl-acetylamino}-3-fluoro-phenoxy)-2-methyl-propionic acid]
80 nM	O=C(O)c1ccc(NC(=O)C(c2c3c(nn2-c2ccc(Cl)cc2)CCCC3)C2CCCCC2)c(Cl)c1 (racemic) [Example 62, [rac]-3-Chloro-4-{2-[2-(4-chloro-phenyl)-4,5,6,7-tetrahydro-2H-indazol-3-yl]-2-cyclohexyl-acetylamino}-benzoic acid]
3040 nM	O=C(N[C@H]1CC[C@H](O)CC1)C(c1c2c(nn1-c1ccc(Cl)cc1)CCCC2)C1CCCCC1 (mixture of isomers) [Example 59, [rac]-2-[2-(4-Chloro-phenyl)-4,5,6,7-tetrahydro-2H-indazol-3-yl]-2-cyclohexyl-(trans)-N-(4-hydroxy-cyclohexyl)-acetamide]
223 nM	O=C(Nc1ccc(OC2(C(=O)O)CC2)cc1F)C(c1c2c(nn1-c1ccc(Cl)cc1)CCCC2)C1CCCCC1 (racemic) [Example 16, [rac]-1-(4-{2-[2-(4-Chloro-phenyl)-4,5,6,7-tetrahydro-2H-indazol-3-yl]-2-cyclohexyl-acetylamino}-3-fluoro-phenoxy)-cyclopropanecarboxylic acid]
7540 nM	COC(=O)c1ccc(COC(c2c3ccccc3nn2-c2ccc(Cl)cc2)C2CCCCC2)cc1 (racemic) [Example 17]
21 nM	O=C(Nc1ccc(OC2(C(=O)O)CC2)cc1F)[C@H](c1c2c(nn1-c1ccc(Cl)cc1)CCCC2)C1CCCCC1 [Example 23, (−)-1-(4-{2-[2-(4-Chloro-phenyl)-4,5,6,7-tetrahydro-2H-indazol-3-yl]-2-cyclohexyl-acetylamino}-3-fluoro-phenoxy)-cyclopropanecarboxylic acid]
4 nM	Clc1ccc(-n2nc3c(c2C(CNc2ccc(-c4nnn[nH]4)cc2)C2CCCCC2)CCCC3)cc1 (racemic) [Example 65, [rac]-{2-[2-(4-Chloro-phenyl)-4,5,6,7-tetrahydro-2H-indazol-3-yl]-2-cyclohexyl-ethyl}-[4-(1H-tetrazol-5-yl)-phenyl]-amine]
